Laboratory results reported in patent publication US20240294551A1 (AMGEN INC., priority 2022, published 2024).
Where a name gives a salt, the structure may show the parent alone. Read-outs that look alike come from different tables or passages of the source.

Key:
[1] = system: MIA PaCa-2 cells; assay: MIA PaCa-2 CTG Assay (CellTiter-Glo cell viability); format: cell-based, human; conditions: Homo sapiens, second value of the cell
Outline: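 IC50 values come from a 4-parameter logistic fit of CellTiter-Glo luminescence, normalized to DMSO control, after 72 h compound exposure at 37° C, 5% CO2. Cells grew in RPMI 1640 plus 10% FBS and were seeded at 1.67E+04 cells/mL one night before dosing.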

[2] = system: Phosphorylation of ERK1/2 in AsPC-1 cells; assay: Phospho-ERK1/2 MSD Assay; format: cell-based, human; conditions: Homo sapiens, ASPC1, 2 h
Outline: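 Read-out: MSD electrochemiluminescent detection of phosphorylated ERK1/2 in whole-cell lysates, fitted to a 4-parameter logistic curve for IC50. Prior to lysis, AsPC-1 cells (25,000 per well) received a 2 h compound dose-response at 37 °C.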

[3] = target: His-tagged KRAS G12D protein (Homo sapiens (Human), UniProt P01116, G12D); assay: KRAS G12D TR-FRET Assay; format: binding
Outline: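 Each incubation ran at room temperature: enzyme with compound for 30 minutes, peptide for one hour, and detection reagents (0.4 nM europium anti-6×His, 5 nM streptavidin-d2) for one hour more. Protein and peptide stocks were each diluted to 20 nM before addition.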

[4] = system: AsPC-1 cells; assay: AsPC-1 CTG Assay (CellTiter-Glo cell viability); format: cell-based, human; conditions: Homo sapiens, ASPC1, 72 h, first value of the cell, read-out: G12D/C/V Cell Proliferation CTG (72 h) AsPC-1
Outline: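 IC50 values derive from 4-parameter logistic fits of CellTiter-Glo luminescence, expressed relative to DMSO. Compound dilution series were applied to overnight-seeded AsPC-1 or SW620 cells (RPMI 1640, 10% FBS) for 72 h at 37 °C, 5% CO2.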

[5] = target: GDP-bound KRAS protein (aa 1-169), containing both G12D and C118A amino acid substitutions (Homo sapiens (Human), UniProt P01116, C118A/G12D); assay: KRAS G12D Coupled Nucleotide Exchange Assay; format: biochemical
[6] = Mia PaCa-2, 72 h, read-out: G12D/C/V Cell Proliferation CTG (72 h) Mia PaCa-2
[7] = read-out: 2 h p-ERK (AsPC-1 cells), IC50
[8] = read-out: KRAS G12D Binding IC50
[9] = read-out: KRAS G12D Coupled Exchange IC50

Sequence of His-tagged KRAS G12D protein (P01116 other isoform, or with tags, fused parts or gaps G12D): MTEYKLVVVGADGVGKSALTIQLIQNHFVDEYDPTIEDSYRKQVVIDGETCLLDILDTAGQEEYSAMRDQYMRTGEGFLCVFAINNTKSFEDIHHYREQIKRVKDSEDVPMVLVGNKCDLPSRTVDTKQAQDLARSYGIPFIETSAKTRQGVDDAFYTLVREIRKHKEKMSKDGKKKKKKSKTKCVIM
Sequence of GDP-bound KRAS protein (aa 1-169), containing both G12D and C118A amino acid substitutions (P01116 other isoform, or with tags, fused parts or gaps G12D/C118A): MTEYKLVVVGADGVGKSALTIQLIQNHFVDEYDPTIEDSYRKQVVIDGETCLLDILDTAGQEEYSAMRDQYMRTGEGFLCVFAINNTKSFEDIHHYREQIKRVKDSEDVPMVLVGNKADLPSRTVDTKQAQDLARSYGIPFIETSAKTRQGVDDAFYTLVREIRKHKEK

SMILES | IC50 [1, 6] | IC50 [2, 7] | IC50 [3, 8] | IC50 ([4]; AsPC-1, 72 h) | IC50 [5, 9] | IC50 ([1]; MIA PaCa-2 cells (G12C), 72 h, read-out: G12D/C/V Cell Proliferation CTG (72 h) MIA PaCa-2) | IC50 ([2]; read-out: 2 h p-ERK (AsPC-1 cells)) | IC50 ([3]; TR-FRET, read-out: KRAS G12D Binding) | IC50 ([4]; AsPC-1 cells (G12D), 72 h) | IC50 ([5]; 2 hours compound pre-incubation, read-out: KRAS G12D Coupled Exchange)
O=C1OCCCc2c(Cl)cc3[nH]ncc3c2-c2ncc3c(nc(OC[C@H]4CC[C@@H]5COCCN54)nc3c2F)N2CCOC[C@H](C2)O1 [Example 185, (26S)-18-chloro-32-fluoro-4-((6R,8aR)-hexahydro-1H-pyrrolo[2,1-c][1,4]oxazin-6-ylmethoxy)-23,25,28-trioxa-1,3,5,9,14,15-hexaazahexacyclo[24.4.1.1~6,10~.0~2,7~.0~11,19~.0~12,16~]dotriaconta-2,4,6,8,10(32),11,13,16,18-nonaen-24-one] | 33 nM | 12 nM | 6 nM | 38 nM | 5 nM | – | – | – | – | –
C[C@@]12CCCN(C1)c1nc(OC[C@@]34CCCN3C[C@H](F)C4)nc3c(F)c(ncc13)-c1cc(O)cc3ccc(F)c(c13)CCCCC(=O)N2 [Example 47, (15R)-23,32-Difluoro-8-(((2R,7aS)-2-fluorotetrahydro-1H-pyrrolo[1,2-a]pyrrol-7a(5H)-yl)methoxy)-28-hydroxy-15-methyl-3,7,9,11,16-pentaazahexacyclo[20.7.1.1˜2,6˜.1˜11,15˜.0˜5,10˜.0˜26,30˜]dotriaconta-1(30),2(32),3,5,7,9,22,24,26,28-decaen-17-one] | 200 nM | 36 nM | 4 nM | 350 nM | 2 nM | – | – | – | – | –
CN1C[C@H](F)C[C@H]1COc1nc2c3cnc(c(F)c3n1)-c1c(c(Cl)cc3[nH]ncc13)CCCOC(=O)O[C@]1(C)COCCN2C1 [Example 318, (26S)-18-chloro-32-fluoro-4-(((2S,4R)-4-fluoro-1-methyl-2-pyrrolidinyl)methoxy)-26-methyl-23,25,28-trioxa-1,3,5,9,14,15-hexaazahexacyclo[24.4.1.1~6,10~.0~2,7~.0~11,19~.0~12,16~]dotriaconta-2,4,6,8,10(32),11,13,16,18-nonaen-24-one] | 33 nM | 35.1 nM | 5 nM | 183 nM | 3 nM | – | – | – | – | –
CO[C@@H]1C[C@@H](COc2nc3c4cnc(c(F)c4n2)-c2c(c(Cl)cc4[nH]ncc24)CCOC(=O)OC2CC4(CCCN3C4)C2)N(C)C1 (mixture of isomers) [Example 307] | 62 nM | 12 nM | 4 nM | 134 nM | 2 nM | – | – | – | – | –
CN1CCC[C@H]1COc1nc2c3cnc(c(F)c3n1)-c1c(c(Cl)cc3[nH]ncc13)CCCOC(=O)O[C@]1(CF)COCCN2C1 [Example 338, (26S)-18-chloro-32-fluoro-26-(fluoromethyl)-4-(((2S)-1-methyl-2-pyrrolidinyl)methoxy)-23,25,28-trioxa-1,3,5,9,14,15-hexaazahexacyclo[24.4.1.1~6,10~.0~2,7~.0~11,19~.0~12,16~]dotriaconta-2,4,6,8,10(32),11,13,16,18-nonaen-24-one] | 35 nM | 41.5 nM | 7 nM | 268 nM | 2 nM | – | – | – | – | –
Fc1c2ncc3c(nc(OC[C@@]45CCCN4C[C@H](F)C5)nc13)N1CCCO[C@@H](COCCCCc3c(Cl)cc4[nH]ncc4c3-2)C1 [Example 140] | 100 nM | 83 nM | 5 nM | 650 nM | 4 nM | – | – | – | – | –
CN1CCC[C@H]1COc1nc2c3cnc(c(F)c3n1)-c1c(c(Cl)cc3[nH]ncc13)CCc1cnc(o1)[C@@H](O)[C@@H]1CCCN2C1 [Example 394, (17S,18R)-9-chloro-31-fluoro-25-(((2S)-1-methylpyrrolidin-2-yl)methoxy)-33-oxa-5,6,15,22,24,26,30-heptaazaheptacyclo[25.3.1.1~13,16~.1~18,22~.0~2,10~.0~3,7~.0~23,28~]tritriaconta-1(31),2,4,7,9,13,15,23,25,27,29-undecaen-17-ol] | – | – | – | – | – | 10 nM | 3 nM | 5 nM | 58 nM | 2 nM
O=C1OCCc2c(Cl)cc3[nH]ncc3c2-c2ncc3c(nc(OC[C@@]45CCCN4C[C@H](F)C5)nc3c2F)N2CCO[C@@H](CO1)C2 [Example 217] | 49 nM | 23 nM | 4 nM | 455 nM | 2 nM | – | – | – | – | –
Fc1c2ncc3c(nc(OC[C@@]45CCCN4C[C@H](F)C5)nc13)N1CCC[C@@H](Cc3ncc(o3)CCc3c(Cl)cc4[nH]ncc4c3-2)C1 [Example 231] | 42 nM | 11.6 nM | 6 nM | 29 nM | 4 nM | – | – | – | – | –
Cc1cc2[nH]ncc2c2c1CCCC(=O)OCC1CCCN(C1)c1nc(OC[C@@]34CCCN3C[C@H](F)C4)nc3c(F)c-2ncc13 (stereo partly drawn) [Example 104] | 300 nM | 38 nM | 7 nM | 860 nM | 2 nM | – | – | – | – | –
CN1CCC[C@H]1COc1nc2c3cnc(c(F)c3n1)-c1c(c(Cl)cc3[nH]ncc13)CCCOC(=O)O[C@@H]1CCCCN2C1 [Example 202, (26R)-18-chloro-32-fluoro-4-(((2S)-1-methyl-2-pyrrolidinyl)methoxy)-23,25-dioxa-1,3,5,9,14,15-hexaazahexacyclo[24.4.1.1~6,10~.0~2,7~.0~11,19~.0~12,16~]dotriaconta-2,4,6,8,10(32),11,13,16,18-nonaen-24-one] | 113 nM | 41.1 nM | 6 nM | 494 nM | 3 nM | – | – | – | – | –
CN1[C@H](COc2nc3c4cnc(c(F)c4n2)-c2c(c(Cl)cc4[nH]ncc24)CCCOC(=O)O[C@@H]2COCCN3C2)C[C@H]2C[C@H]21 [Example 329, (26S)-18-chloro-32-fluoro-4-(((1R,3S,5R)-2-methyl-2-azabicyclo[3.1.0]hexan-3-yl)methoxy)-23,25,28-trioxa-1,3,5,9,14,15-hexaazahexacyclo[24.4.1.1~6,10~.0~2,7~.0~11,19~.0~12,16~]dotriaconta-2,4,6,8,10(32),11,13,16,18-nonaen-24-one] | 530 nM | 206 nM | 14 nM | 402 nM | 7 nM | – | – | – | – | –
Cc1cc2[nH]ncc2c2c1CCCOC(=O)O[C@@H]1CCCCN(C1)c1nc(OC[C@@]34CCCN3C[C@H](F)C4)nc3c(F)c-2ncc13 [Example 98, (26R)-32-fluoro-4-(((2R,7aS)-2-fluorotetrahydro-1H-pyrrolo[1,2-a]pyrrol-7a(5H)-yl)methoxy)-18-methyl-23,25-dioxa-1,3,5,9,14,15-hexaazahexacyclo[24.4.1.1~6,10~.0~2,7~.0~11,19~.0~12,16~]dotriaconta-2,4,6,8,10(32),11,13,16,18-nonaen-24-one] | 50 nM | 17 nM | 4 nM | 140 nM | 2 nM | – | – | – | – | –
C[C@@]12CCN(C1)c1nc(OC[C@@]34CCCN3C[C@H](F)C4)nc3c(F)c(ncc13)-c1cc(O)cc3ccc(F)c(c13)CCCC(=O)N2 [Example 10, (14R)-21,30-Difluoro-8-(((2R,7aS)-2-fluorotetrahydro-1H-pyrrolo[1,2-a]pyrrol-7a(5H)-yl)methoxy)-26-hydroxy-14-methyl-3,7,9,11,15-pentaazahexacyclo[18.7.1.1˜2,6˜.1˜11,14˜.0˜5,10˜.0˜24,28˜]triaconta-1(27),2(30),3,5,7,9,20,22,24(28),25-decaen-16-one 2,2,2-trifluoroacetate salt] | 157 nM | 84 nM | 4 nM | 574 nM | 2 nM | – | – | – | – | –
C[C@@]12CCCCN(C1)c1nc(OC[C@@]34CCCN3C[C@H](F)C4)nc3c(F)c(ncc13)-c1c(c(Cl)cc3[nH]ncc13)CCCOC(=O)N2 [Example 290, (26R)-18-chloro-32-fluoro-4-(((2R,7aS)-2-fluorotetrahydro-1H-pyrrolo[1,2-a]pyrrol-7a(5H)-yl)methoxy)-26-methyl-23-oxa-1,3,5,9,14,15,25-heptaazahexacyclo[24.4.1.1~6,10~.0~2,7~.0~11,19~.0~12,16~]dotriaconta-2,4,6(32),7,9,11,13,16,18-nonaen-24-one] | 32 nM | 3.1 nM | 4 nM | 36 nM | 2 nM | – | – | – | – | –
